The subject of series [1] is HUVEC. Put plainly: Wound healing migration assay. It counts as cell-based, human. The note with it: various concentrations; 24 hours. An excerpt: (§1) Cell migration is essential for ECs in angiogenesis and for cancer cells in tumor growth and metastasis. […] Cell invasion is essential for EC in angiogenesis, so we performed transwell assays to evaluate the ability of HUVEC to pass through the Matrigel and membrane barriers of the transwell in the presence of various concentrations of YLT192 or vehicle.
Figure 2 Effects of YLT192 on HUVECs proliferation, migration, invasion and tube formation. […] Cells were wounded by the pipette and then treated with various concentrations of compounds for 24 hours. Migrated cells were quantified by manual counting (50×). […] The bottom chambers of the transwells were filled with 600 μL EGM2 containing various growth factors while the top chambers were seeded with 4 × 10^4 HUVECs in EBM2 and treated with different concentrations of compounds for 24 hours. Cells invaded through the membrane were stained and quantified (100×). […] HUVECs were seeded on Matrigel layer and treated with different concentrations of compounds. HUVECs tube formation was assessed 6 hours later (50×). One representative experiment of three is shown. For (A), (B) and (C), data represent the mean ± SEM of three different experiments. Each experiment was performed in duplicate.*P < 0.05, **P < 0.01. (D) YLT192 inhibited VEGF-induced phosphorylation of VEGFR2 and its downstream signal regulator p44/42 MAPK, STAT3 and AKT in HUVECs. One representative Western blot of three is presented. Each has the expression of β-actin as internal control. The full size blots were shown in the Supplemental Figure S5 online. (E) Cellular thermal shift assay showing VEGFR2 target engagement by YLT192 in intact HUVECs. One representative Western blot of two is presented. The full size blots were shown in the Supplemental Figure S6 online. […]
(§2) HUVECs were allowed to grow into full confluence in 24-well plates and then wounded by scratching with pipette tips and washed with PBS. […] Images were taken using a ZEISS digital microscope and invading cells were counted by manual counting. […]

For series [2], the system named is HUVEC. In words: Transwell invasion assay. Conditions: various concentrations; 24 hours; concentration-dependent. The class given is cell-based, human.
Description: as §1
Figure 2 Effects of YLT192 on HUVECs proliferation, migration, invasion and tube formation. […] Cells were wounded by the pipette and then treated with various concentrations of compounds for 24 hours. Migrated cells were quantified by manual counting (50×). […] The bottom chambers of the transwells were filled with 600 μL EGM2 containing various growth factors while the top chambers were seeded with 4 × 10^4 HUVECs in EBM2 and treated with different concentrations of compounds for 24 hours. Cells invaded through the membrane were stained and quantified (100×). […] HUVECs were seeded on Matrigel layer and treated with different concentrations of compounds. HUVECs tube formation was assessed 6 hours later (50×). One representative experiment of three is shown. […]
as §2

The subject of series [3] is HUVEC. Put plainly: Capillary-like tube formation assay. Conditions: designed concentrations; 6 hours; Matrigel. The class given is cell-based, human. On the procedure: To elucidate the possible mechanisms of angiogenesis inhibition, tube formation ability of ECs, which is a critical step in the process of angiogenesis, was assessed in HUVEC in vitro.
The anti-angiogenesis ability of YLT192 in vitro was evaluated using capillary tube formation assay as described previously. Briefly, 96-well plate was pre-incubated with Matrigel at 37°C for 45 minutes. Then HUVECs (2 × 10^4 cells) suspended in EGM2 medium were seeded onto the Matrigel. They were treated with various concentrations of YLT192. After 6 hours incubation at 37°C, tube formation was assessed with an OLYMPUS inverted digital camera in low power fields (50×). Vandetanib served as positive control. The assay was replicated 3 times.

For series [4] the following is noted: cited from earlier work; for toxicities after single doses: rat, in vivo; for maximal tolerance dose (MTD): rats, ref http://www.accessdata.fda.gov/drugsatfda.

Consider `COc1cc2c(Nc3ccc(Br)cc3F)ncnc2cc1OCC1CCN(C)CC1` [Vandetanib, reference compound], for which the “HUVECs migration in wound healing assay” value in the series with HUVEC [1] is listed as “inhibited HUVECs migration”. The “invasion of HUVECs in transwell assay” value in the series with HUVEC [2] was “inhibted HUVECs invasion”. Further, the “tube formation of HUVEC” value in the series with HUVEC [3] was “inhibited HUVECs tube formation”.
Regarding `CNC(=O)c1cc(Oc2ccc(NC(=O)Nc3ccc(Cl)c(C(F)(F)F)c3)cc2)ccn1` [sorafenib], in series [4], the “toxicities after single doses” value is “toxicities in the gastrointestinal tract and liver”; the “maximal tolerance dose (MTD)” value was 500 mg/kg.
`CCN(CC)CCNC(=O)c1c(C)[nH]c(/C=C2\C(=O)Nc3ccc(F)cc32)c1C` [sunitinib]: in series [4], the “toxicities after single doses” value was “toxicities in the gastrointestinal tract and liver”; the “maximal tolerance dose (MTD)” value is 500 mg/kg.

The values are drawn from PMC4129416, “YLT192, a Novel, Orally Active Bioavailable Inhibitor of VEGFR2 Signaling with Potent Antiangiogenic Activity and Antitumor Efficacy in Preclinical Models” (Scientific Reports, 2014).
